Some test systems named below: CAKI-1; CCRF-CEM; COLO 205; HCT-15; HL-60; HOP-62; K562; LOX IMVI; Malme-3M; RPMI-8226; SK-MEL-28; SK-MEL-2; SNB-78; TK-10; U-251; UACC-257; DU-145; MDA-N; NCI/ADR-RES; T47D.
What all share (assay): inhibition of tumour cell growth, NCI panel, 48 h

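Cells were grown in 96-well plates and exposed to each compound for 48 hours at five concentrations; endpoints were interpolated linearly between bracketing concentrations, or set to the highest concentration if not reached. GI50: concentration for 50% inhibition of growth.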 Calls of active or inactive are those of the source. No stated cut-off is given here; in the data, active = GI50 up to about 1.1 µM and inactive = higher. Where only a bound is given, the exact number is not on record here.

Turning to `Cc1ccc2nc(N)[nH]c(=O)c2c1Sc1ccncc1`, the GI50 in the experiment with CAKI-1 is 31.6 µM (inactive); in the experiment with CCRF-CEM, 5.05 µM (inactive); in the experiment on COLO 205, > 92.9 µM (inactive); with HCT-15, greater than 100 µM; in the experiment on HL-60, 10.9 µM (inactive); with HOP-62 it was 5.11 µM (inactive). The GI50 with K562 was 15.8 µM (inactive); with LOX IMVI, 11.2 µM (inactive); in the experiment on Malme-3M, > 65.2 µM (inactive); in the experiment on RPMI-8226, 23.3 µM (inactive); in the experiment on SK-MEL-28, > 92.3 µM (inactive); with SK-MEL-2 it was > 100 µM (inactive). Further, the GI50 was > 100 µM (inactive) in the experiment with SNB-78, > 100 µM (inactive) in the experiment on TK-10, > 51.1 µM (inactive) in the experiment with U-251 and > 100 µM (inactive) in the experiment on UACC-257.

Consider `COC(=O)CC(CC(=O)C(=O)OC)C(=O)OC` (configuration not stated), for which the GI50 is > 100 µM (inactive) with CAKI-1; > 100 µM (inactive) in the experiment with CCRF-CEM; > 100 µM (inactive) with COLO 205; greater than 100 µM with HCT-15; > 100 µM (inactive) in the experiment with HL-60; > 100 µM (inactive) with HOP-62. The GI50 in the experiment on K562, in the experiment with LOX IMVI, with Malme-3M, in the experiment with RPMI-8226, in the experiment on SK-MEL-28 and in the experiment on SK-MEL-2 was > 100 µM (inactive) in each case. The GI50 in the experiment with SNB-78, in the experiment on TK-10, in the experiment on U-251 and in the experiment with UACC-257 was > 100 µM (inactive) each time.

As to `C/C(CC(=O)Nc1ccc(NC(=O)C/C(C)=N\NC(N)=O)cc1)=N/NC(N)=O`, the GI50 with CAKI-1 is > 100 µM (inactive); with CCRF-CEM, > 62.8 µM (inactive); with COLO 205 it was > 50.9 µM (inactive); in the experiment on HCT-15, greater than 42.3 µM; in the experiment with HL-60, > 61.7 µM (inactive); in the experiment on HOP-62 it was > 100 µM (inactive). For the same compound, the GI50 is 52.7 µM (inactive) in the experiment on K562; > 42.5 µM (inactive) in the experiment on LOX IMVI; > 100 µM (inactive) in the experiment on Malme-3M; 24.8 µM (inactive) in the experiment with RPMI-8226; > 44.4 µM (inactive) in the experiment with SK-MEL-28; > 95.3 µM (inactive) with SK-MEL-2. Further, the GI50 is > 100 µM (inactive) with SNB-78, > 68.7 µM (inactive) in the experiment on TK-10, > 78 µM (inactive) with U-251 and > 100 µM (inactive) with UACC-257.

`O=[N+]([O-])C1C2C=CC(C2)[C@H]1c1ccccc1Cl` (some centres not stated): the GI50 was > 10 µM (inactive) in the experiment with CAKI-1; 87.5 µM (inactive) in the experiment with CCRF-CEM; > 100 µM (inactive) in the experiment with COLO 205; greater than 96.6 µM in the experiment on HCT-15; 29.9 µM (inactive) in the experiment on HL-60; > 10 µM (inactive) in the experiment on HOP-62. For the same compound, the GI50 in the experiment on K562 is 59.4 µM (inactive); with LOX IMVI, > 100 µM (inactive); in the experiment on Malme-3M, 99.1 µM (inactive); in the experiment on RPMI-8226, > 69.8 µM (inactive); with SK-MEL-28, > 68.7 µM (inactive); in the experiment on SK-MEL-2, > 77.8 µM (inactive). For the same compound, the GI50 was > 100 µM (inactive) in the experiment with SNB-78, > 100 µM (inactive) in the experiment on TK-10, > 87.9 µM (inactive) with U-251 and 67 µM (inactive) in the experiment with UACC-257.

Consider `N#C/C(=C\c1ccc(O)c(O)c1)C(N)=S` [TYRPHOSTIN 47], for which the GI50 was > 100 µM (inactive) in the experiment with CAKI-1; 9.55 µM (inactive) with CCRF-CEM; 56 µM (inactive) with COLO 205; 53.5 µM in the experiment on HCT-15; 10.1 µM (inactive) with HL-60; > 100 µM (inactive) in the experiment with HOP-62. Besides, the GI50 in the experiment on K562 is 22.5 µM (inactive); with LOX IMVI, > 88.9 µM (inactive); in the experiment with Malme-3M, > 100 µM (inactive); in the experiment with RPMI-8226, > 49.2 µM (inactive); in the experiment with SK-MEL-28 it was > 84.7 µM (inactive); with SK-MEL-2, > 100 µM (inactive). Further, the GI50 is > 100 µM (inactive) in the experiment on SNB-78, > 100 µM (inactive) in the experiment on TK-10, 70.5 µM (inactive) in the experiment with U-251 and > 54.7 µM (inactive) in the experiment with UACC-257.

As to `C[N+]1(C)C/C(=C\C=C\c2ccccc2)C(=O)/C(=C/C=C/c2ccccc2)C1`, the GI50 in the experiment on CAKI-1 was 65 µM (inactive); with CCRF-CEM, 1.78 µM (inactive); in the experiment with COLO 205, 0.773 µM (active); with DU-145, 17.2 µM (inactive); in the experiment on HCT-15, 40.2 µM; in the experiment on HL-60, 1.02 µM (active). Moreover, the GI50 with HOP-62 is 21.3 µM (inactive); in the experiment on K562 it was 4.18 µM (inactive); in the experiment with LOX IMVI, 12.2 µM (inactive); in the experiment on MDA-N it was 4.48 µM (inactive); with Malme-3M, 16 µM (inactive); in the experiment with NCI/ADR-RES it was > 100 µM (inactive). The GI50 was 2.07 µM (inactive) with RPMI-8226; 3.85 µM (inactive) with SK-MEL-28; 17 µM (inactive) with SK-MEL-2; 6.12 µM (inactive) with SNB-78; 17 µM (inactive) in the experiment with T47D; 33.4 µM (inactive) in the experiment with TK-10. The GI50 in the experiment on U-251 is 3.89 µM (inactive); with UACC-257 it was 8.39 µM (inactive).

Consider `Nc1ccc2ncc(Nc3ccc(Cl)c(Cl)c3)nc2c1`, for which the GI50 with CAKI-1 is 23.4 µM (inactive); in the experiment on CCRF-CEM, 19.7 µM (inactive); with COLO 205, 16.7 µM (inactive); with HCT-15, 34 µM; in the experiment with HL-60 it was 14.5 µM (inactive); in the experiment with HOP-62, 42.3 µM (inactive). Also, the GI50 in the experiment with K562 was 18.1 µM (inactive); with LOX IMVI, 21.6 µM (inactive); with Malme-3M, 23.1 µM (inactive); in the experiment on RPMI-8226, 24.5 µM (inactive); in the experiment with SK-MEL-28, 26.5 µM (inactive); in the experiment with SK-MEL-2, 26.4 µM (inactive). For the same compound, the GI50 in the experiment with SNB-78 is 26.9 µM (inactive); with TK-10 it was 70.6 µM (inactive); in the experiment with U-251 it was 33.7 µM (inactive); in the experiment with UACC-257 it was 19.4 µM (inactive).

As to `CC1OC(n2cc(I)c(=O)[nH]c2=O)C=CC1=O` (configuration not stated), the GI50 in the experiment with CAKI-1 is 16 µM (inactive); in the experiment with CCRF-CEM it was 2.43 µM (inactive); with COLO 205 it was 17 µM (inactive); in the experiment with HCT-15 it was 17.1 µM; with HL-60, 6.82 µM (inactive); in the experiment with HOP-62, 18.5 µM (inactive). Further, the GI50 in the experiment with K562 is 3.92 µM (inactive); in the experiment with LOX IMVI, 6.47 µM (inactive); with Malme-3M, 14.9 µM (inactive); with RPMI-8226, 13.9 µM (inactive); in the experiment with SK-MEL-28, 15.7 µM (inactive); in the experiment with SK-MEL-2, 17.9 µM (inactive). Moreover, the GI50 with SNB-78 was 14.7 µM (inactive); in the experiment on TK-10, 18.6 µM (inactive); in the experiment on U-251, 14.4 µM (inactive); with UACC-257, 14.7 µM (inactive).

(Values after ChEMBL document CHEMBL1201862, “PubChem BioAssay data set” (2004).)
